Measurements as given in US8455485B2, “Pyrazolo pyridine derivatives as NADPH oxidase inhibitors” (Genkyotex SA, priority 2008, dated 2013).

Test system: NOX activity
Assay: Amplex Red measurement of extracellular hydrogen peroxide (NOX activity) using DMSO-differentiated HL60 cells
Assay type: cell-based, human
Details: Amplex red, DMSO-differentiated HL60 cells; compound concentration not stated
Procedure: Human acute myeloid leukemia cell line HL-60 was cultured in RPMI 1640 (Invitrogen) supplemented with 10% heat-inactivated calf serum, 2 mM glutamine, 100 U/mL penicillin (Sigma), and 100 μg streptomycin (Sigma) at 37° C. under a humidified atmosphere of 5% CO2. HL60 differentiation to the neutrophil phenotype was triggered by adding Me2SO (final concentration 1.25% v/v for 6 days) to the culture medium.
Extracellular hydrogen peroxide was measured using Amplex UltraRed (Molecular Probes). Cells were trypsinized (1× Trypsin-EDTA), collected by centrifugation, and resuspended in HBSS supplemented with 1% glucose. Cells were seeded into black 96-well plates at a density of 50′000 cells in 200 μl testing buffer (HBSS 1% glucose containing 0.005 U/mL horseradish peroxidase (Roche) and 50 μM Amplex Red in the presence or absence of compounds according to the invention. As a control, DPI was included at a final concentration of 10 μM The plates were placed in the fluorescent Optima Fluorescent plate reader and kept at 37° C. during 20 min Fluorescence was measured for […] with excitation and emission wavelengths of 544 nm and 590 nm respectively. NOX activities were expressed as % of the activity in control cells. Residual activity of DPI-treated cells was usually <10%.
The Table 2 below summarizes the percentage of inhibition of NOX activity as measured by Amplex red using DMSO-differentiated HL60 cells as described above: […]

SMILES | Inhibition (%) of NOX activity
O=c1c2c(CN3CCOCC3)n(Cc3ccccc3)c(=O)cc2[nH]n1-c1ccccc1Cl [Compound 1, 5-benzyl-2-(2-chlorophenyl)-4-(morpholin-4-ylmethyl)-1H-pyrazolo[4,3-c]pyridine-3,6(2H,5H)-dione] | 80%
CCCCc1c2c(=O)n(C)[nH]c2cc(=O)n1Cc1ccccn1 [Compound 3, 4-butyl-2-methyl-5-(pyridin-2-ylmethyl)-1H-pyrazolo[4,3-c]pyridine-3,6(2H,5H)-dione] | 84%
CCCCc1c2c(=O)n(-c3ccc(OCc4ccccc4)cc3)[nH]c2cc(=O)n1Cc1ccc(Cl)cc1 [Compound 4, 2-[4-(benzyloxy)phenyl]-4-butyl-5-(4-chlorobenzyl)-1H-pyrazolo[4,3-c]pyridine-3,6(2H,5H)-dione] | 69%
CCCCc1c2c(=O)n(-c3ccc(OCc4ccccc4)cc3)[nH]c2cc(=O)n1C [Compound 5, 2-[4-(benzyloxy)phenyl]-4-butyl-5-methyl-1H-pyrazolo[4,3-c]pyridine-3,6(2H,5H)-dione] | 94%
CCCCc1c2c(=O)n(-c3ccc(F)cc3Cl)[nH]c2cc(=O)n1Cc1ccco1 [Compound 7, 4-butyl-2-(2-chloro-4-fluorophenyl)-5-(furan-2-ylmethyl)-1H-pyrazolo[4,3-c]pyridine-3,6(2H,5H)-dione] | 91%
CCCCc1c2c(=O)n(-c3ccc(F)cc3Cl)[nH]c2cc(=O)n1CCOC [Compound 9, 4-butyl-2-(2-chloro-4-fluorophenyl)-5-(2-methoxyethyl)-1H-pyrazolo[4,3-c]pyridine-3,6(2H,5H)-dione] | 76%
CCCCc1c2c(=O)n(-c3ccc(F)cc3Cl)[nH]c2cc(=O)n1CCc1ccccn1 [Compound 10, 4-butyl-2-(2-chloro-4-fluorophenyl)-5-(2-pyridin-2-ylethyl)-1H-pyrazolo[4,3-c]pyridine-3,6(2H,5H)-dione] | 78%
COCCCn1c(CN(C)Cc2ccccc2)c2c(=O)n(-c3ccc(F)cc3Cl)[nH]c2cc1=O [Compound 12, 4-{[benzyl(methyl)amino]methyl}-2-(2-chloro-4-fluorophenyl)-5-(3-methoxypropyl)-1H-pyrazolo[4,3-c]pyridine-3,6(2H,5H)-dione] | 79%
CCCCc1c2c(=O)n(-c3ccc(F)cc3Cl)[nH]c2cc(=O)n1Cc1ccccc1CN1CCOCC1 [Compound 14, 4-butyl-2-(2-chloro-4-fluorophenyl)-5-[2-(morpholin-4-ylmethyl)benzyl]-1H-pyrazolo[4,3-c]pyridine-3,6(2H,5H)-dione] | 86%
COCc1c2c(=O)n(-c3cccc(Cl)c3)[nH]c2cc(=O)n1Cc1ccccn1 [Compound 23, 2-(3-chlorophenyl)-4-(methoxymethyl)-5-(pyridin-2-ylmethyl)-1H-pyrazolo[4,3-c]pyridine-3,6(2H,5H)-dione] | 89%
Cn1[nH]c2cc(=O)n(Cc3ccccn3)c(CCCOc3ccccc3)c2c1=O [Compound 30, 2-methyl-4-(3-phenoxypropyl)-5-(pyridin-2-ylmethyl)-1H-pyrazolo [4,3-c]pyridine-3,6(2H,5H)-dione] | 92%
COCCn1c(CN2CCCC2)c2c(=O)n(Cc3ccccc3)[nH]c2cc1=O [Compound 31, 2-benzyl-5-(2-methoxyethyl)-4-(pyrrolidin-1-ylmethyl)-1H-pyrazolo [4,3-c]pyridine-3,6(2H,5H)-dione] | 82%
CCOCCCn1c(CN2CCCC2)c2c(=O)n(-c3ccc(F)cc3Cl)[nH]c2cc1=O [Compound 45, 2-(2-chloro-4-fluoro-phenyl)-5-(3-ethoxypropyl)-4-(pyrrolidin-1-ylmethyl)-1H-pyrazolo[4,3-c] pyridine-3,6(2H,5H)-dione] | 86%
CCOCCCn1c(CN2CCCC2)c2c(=O)n(Cc3ccccc3)[nH]c2cc1=O [Compound 47, 2-benzyl-5-(3-ethoxypropyl)-4-(pyrrolidin-1-ylmethyl)-1H-pyrazolo[4,3-c]pyridine-3,6(2H,5H)-dione] | 89%
Cn1[nH]c2cc(=O)n(Cc3ccc(Cl)cc3)c(CN3CCCC3)c2c1=O [Compound 52, 5-(4-chlorobenzyl)-2-methyl-4-(pyrrolidin-1-ylmethyl)-1H-pyrazolo[4,3-c]pyridine-3,6(2H,5H)-dione] | 90%
CC(=O)Nc1cccc(Cn2c(CN3CCCC3)c3c(=O)n(-c4ccc(OCc5ccccc5)cc4)[nH]c3cc2=O)c1 [Compound 53, N-[3-({2-[4-(benzyloxy)phenyl]-3,6-dioxo-4-(pyrrolidin-1-ylmethyl)-1,2,3,6-tetrahydro-5H-pyrazolo[4,3-c]pyridin-5-yl}methyl)phenyl] acetamide] | 86%
COCCn1c(COc2ccc(F)cc2)c2c(=O)n(-c3ccccc3Cl)[nH]c2cc1=O [Compound 58, 2-(2-chlorophenyl)-4-[(4-fluorophenoxy)methyl]-5-(2-methoxyethyl)-1H-pyrazolo[4,3-c]pyridine-3,6(2H,5H)-dione] | 80%
Cn1[nH]c2cc(=O)n(Cc3ccccn3)c(COCc3ccccc3)c2c1=O [Compound 63, 4-[(benzyloxy)methyl]-2-methyl-5-(pyridin-2-ylmethyl)-1H-pyrazolo [4,3-c]pyridine-3,6 (2H,5H)-dione] | 89%
Cn1[nH]c2cc(=O)n(Cc3cccc(N4CCOCC4)n3)c(COc3ccc(F)cc3)c2c1=O [Compound 65, 4-[(4-fluorophenoxy)methyl]-2-methyl-5-[(6-morpholin-4-ylpyridin-2-yl)methyl]-1H-pyrazolo[4,3-c] pyridine-3,6(2H,5H)-dione] | 80%
Cn1c(C2CN(Cc3ccccc3)CCO2)c2c(=O)n(-c3ccccc3Cl)[nH]c2cc1=O (stereo not drawn) [Compound 84, 4-(4-benzylmorpholin-2-yl)-2-(2-chloro-phenyl)-5-methyl-1H-pyrazolo [4,3-c]pyridine-3,6 (2H,5H)-dione] | 78%
Cn1c(COc2ccc(Cl)cc2)c2c(=O)n(-c3ccccc3Cl)[nH]c2cc1=O [Compound 92, 4-[(4-chlorophenoxy)methyl]-2-(2-chlorophenyl)-5-methyl-1H-pyrazolo[4,3-c] pyridine-3,6(2H,5H)-dione] | 76%
CN(Cc1c2c(=O)n(-c3ccccc3Cl)[nH]c2cc(=O)n1CCc1ccccn1)c1ccccc1 [Compound 93, 2-(2-chlorophenyl)-4-{[methyl(phenyl)amino]methyl}-5-(2-pyri-din-2-ylethyl)-1H-pyrazolo[4,3-c] pyridine-3,6(2H,5H)-dione] | 80%
CC(C)(C)OC(=O)N1CCC(Cn2c(COCc3ccccc3)c3c(=O)n(-c4ccccc4Cl)[nH]c3cc2=O)CC1 [Compound 100, tert-butyl 4-({4-[(benzyloxy)methyl]-2-(2-chlorophenyl)-3,6-dioxo-1,2,3,6-tetrahydro-5H-pyrazolo[4,3-c]pyri-din-5-yl}methyl)pipe-ridine-1-carboxylate] | 78%
CCN(CC)CCCn1c(COCc2ccccc2)c2c(=O)n(-c3ccccc3Cl)[nH]c2cc1=O [Compound 102, 4-[(benzyloxy)methyl]-2-(2-chlorophenyl)-5-[3-(diethylamino)propyl]-1H-pyrazolo[4,3-c] pyridine-3,6(2H,5H)-dione] | 80%
CN1CCC(Cn2c(COCc3ccccc3)c3c(=O)n(-c4ccccc4Cl)[nH]c3cc2=O)CC1 [Compound 106, 4-[(benzyloxy)methyl]-2-(2-chlorophenyl)-5-[(1-methylpiperidin-4-yl)methyl]-1H-pyrazolo [4,3-c]pyridine-3,6(2H,5H)-dione] | 81%
Cn1c(COC(c2ccccc2)C(F)(F)F)c2c(=O)n(-c3ccccc3Cl)[nH]c2cc1=O (stereo not drawn) [Compound 108, 2-(2-chlorophenyl)-5-methyl-4-[(2,2,2-trifluoro-1-phenylethoxy)methyl]-1H-pyrazolo[4,3-c] pyridine-3,6(2H,5H)-dione] | 75%
O=c1c2c(COCc3ccccc3)n(Cc3cnccn3)c(=O)cc2[nH]n1-c1ccccc1Cl [Compound 113, 4-[(benzyloxy)methyl]-2-(2-chlorophenyl)-5-(pyrazin-2-yl-methyl)-1H-pyrazolo[4,3-c]pyridine-3,6(2H,5H)-dione] | 87%
CN(C)C(=O)Cn1c(COCc2ccccc2)c2c(=O)n(-c3ccccc3Cl)[nH]c2cc1=O [Compound 116, 2-{4-[(benzyloxy)methyl]-2-(2-chlorophenyl)-3,6-dioxo-1,2,3,6-tetrahydro-5H-pyrazolo[4,3-c]pyridin-5-yl)-N,N dimethyl acetamide] | 81%
CN(CCCc1c2c(=O)n(-c3ccccc3Cl)[nH]c2cc(=O)n1C)c1ccccc1 [Compound 120, 2-(2-chlorophenyl)-5-methyl-4-{3-[methyl (phenyl)amino]propyl}-1H-pyrazolo[4,3-c] pyridine-3,6(2H,5H)-dione] | 77%
Cn1c(CCCN2CCc3ccccc32)c2c(=O)n(-c3ccccc3Cl)[nH]c2cc1=O [Compound 123, 2-(2-chloro-phenyl)-4-[3-(2,3-dihydro-1H-indol-1-yl)propyl]-5-methyl-1H-pyrazolo[4,3-c] pyridine-3,6(2H,5H)-dione] | 90%
